Measured values: the supplement of paper PMC10307832

What was measured:
Test in all cases: relative viability (nuclei count vs DMSO), 5 days (fraction); higher = more cells survive
LCLC-103H = test system: LCLC-103H
In short: (§1)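 Medians of duplicate plates are given as relative viability. That measure is the nuclei count in treated wells divided by the count in vehicle wells. Counts were taken on 4× images of lung cancer cell lines in 1536-well plates, 5 days after pin-tool dosing the day after seeding with one drug alone or a fixed anchor-drug dose plus five library-drug doses (not always all listed) in √10 steps.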

LXF-289 = test system: LXF-289
In short: as §1

NCI-H1355 = test system: NCI-H1355
In short: as §1

NCI-H1563 = test system: NCI-H1563
In short: as §1

NCI-H1651 = test system: NCI-H1651
In short: as §1

NCI-H1755 = test system: NCI-H1755
In short: as §1

NCI-H1792 = test system: NCI-H1792
In short: as §1

NCI-H1915 = test system: NCI-H1915
In short: as §1

NCI-H2170 = test system: NCI-H2170
In short: as §1

NCI-H2347 = test system: NCI-H2347
In short: as §1

NCI-H3122 = test system: NCI-H3122
In short: as §1

NCI-H322M = test system: NCI-H322M
In short: as §1

NCI-H441 = test system: NCI-H441
In short: as §1

NCI-H460 = test system: NCI-H460
In short: as §1

NCI-H520 = test system: NCI-H520
In short: as §1

NCI-H596 = test system: NCI-H596
In short: as §1

NCI-H650 = test system: NCI-H650
In short: as §1

NCI-H661 = test system: NCI-H661
In short: as §1

NCI-H727 = test system: NCI-H727
In short: as §1

PC-14 = test system: PC-14
In short: as §1

RERF-LC-KJ = test system: RERF-LC-KJ
In short: as §1

SK-MES-1 = test system: SK-MES-1
In short: as §1

SW 900 = test system: SW 900
In short: as §1

## CC1(C)CCC(c2ccc(Cl)cc2)=C(CN2CCN(c3ccc(C(=O)NS(=O)(=O)c4ccc(N[C@H](CCN5CCOCC5)CSc5ccccc5)c(S(=O)(=O)C(F)(F)F)c4)cc3)CC2)C1 [Navitoclax] + CCNC(=O)c1noc(-c2cc(C(C)C)c(O)cc2O)c1-c1ccc(CN2CCOCC2)cc1 [Luminespib] (partner 0.01 µM)
LCLC-103H; first compound 0.005 µM
  relative viability: 1.04
LCLC-103H; first compound 0.01581 µM
  relative viability: 1.03
LCLC-103H; first compound 0.05 µM
  relative viability: 1.08
LCLC-103H; first compound 0.1581 µM
  relative viability: 1.02
LCLC-103H; first compound 0.5 µM
  relative viability: 0.884
LXF-289; first compound 0.005 µM
  relative viability: 0.631
LXF-289; first compound 0.01581 µM
  relative viability: 0.754
LXF-289; first compound 0.05 µM
  relative viability: 0.725
LXF-289; first compound 0.1581 µM
  relative viability: 0.584
LXF-289; first compound 0.5 µM
  relative viability: 0.636
NCI-H1355; first compound 0.005 µM
  relative viability: 0.725
NCI-H1355; first compound 0.01581 µM
  relative viability: 0.845
NCI-H1355; first compound 0.05 µM
  relative viability: 0.674
NCI-H1355; first compound 0.1581 µM
  relative viability: 0.668
NCI-H1355; first compound 0.5 µM
  relative viability: 0.742
NCI-H1563; first compound 0.005 µM
  relative viability: 0.53
NCI-H1563; first compound 0.01581 µM
  relative viability: 0.507
NCI-H1563; first compound 0.05 µM
  relative viability: 0.485
NCI-H1563; first compound 0.1581 µM
  relative viability: 0.557
NCI-H1563; first compound 0.5 µM
  relative viability: 0.475
NCI-H1651; first compound 0.005 µM
  relative viability: 0.966
NCI-H1651; first compound 0.01581 µM
  relative viability: 0.971
NCI-H1651; first compound 0.05 µM
  relative viability: 0.563
NCI-H1651; first compound 0.1581 µM
  relative viability: 0.809
NCI-H1651; first compound 0.5 µM
  relative viability: 0.712
NCI-H1755; first compound 0.005 µM
  relative viability: 0.381
NCI-H1755; first compound 0.01581 µM
  relative viability: 0.393
NCI-H1755; first compound 0.05 µM
  relative viability: 0.332
NCI-H1755; first compound 0.1581 µM
  relative viability: 0.173
NCI-H1755; first compound 0.5 µM
  relative viability: 0.426
NCI-H1792; first compound 0.005 µM
  relative viability: 0.456
NCI-H1792; first compound 0.01581 µM
  relative viability: 0.685
NCI-H1792; first compound 0.05 µM
  relative viability: 0.351
NCI-H1792; first compound 0.5 µM
  relative viability: 0.527
NCI-H1915; first compound 0.005 µM
  relative viability: 0.749
NCI-H1915; first compound 0.01581 µM
  relative viability: 0.778
NCI-H1915; first compound 0.05 µM
  relative viability: 0.793
NCI-H1915; first compound 0.1581 µM
  relative viability: 0.746
NCI-H1915; first compound 0.5 µM
  relative viability: 0.829
NCI-H2170; first compound 0.005 µM
  relative viability: 0.519
NCI-H2170; first compound 0.01581 µM
  relative viability: 0.806
NCI-H2170; first compound 0.05 µM
  relative viability: 0.552
NCI-H2170; first compound 0.1581 µM
  relative viability: 0.67
NCI-H2170; first compound 0.5 µM
  relative viability: 0.538
NCI-H2347; first compound 0.005 µM
  relative viability: 0.467
NCI-H2347; first compound 0.01581 µM
  relative viability: 0.62
NCI-H2347; first compound 0.1581 µM
  relative viability: 0.372
NCI-H2347; first compound 0.5 µM
  relative viability: 0.312
NCI-H3122; first compound 0.005 µM
  relative viability: 0.09
NCI-H3122; first compound 0.01581 µM
  relative viability: 0.0825
NCI-H3122; first compound 0.05 µM
  relative viability: 0.11
NCI-H3122; first compound 0.1581 µM
  relative viability: 0.083
NCI-H3122; first compound 0.5 µM
  relative viability: 0.0991
NCI-H322M; first compound 0.005 µM
  relative viability: 0.81
NCI-H322M; first compound 0.01581 µM
  relative viability: 1.12
NCI-H322M; first compound 0.05 µM
  relative viability: 1.07
NCI-H322M; first compound 0.1581 µM
  relative viability: 0.908
NCI-H322M; first compound 0.5 µM
  relative viability: 0.908
NCI-H441; first compound 0.005 µM
  relative viability: 0.294
NCI-H441; first compound 0.01581 µM
  relative viability: 0.288
NCI-H441; first compound 0.05 µM
  relative viability: 0.42
NCI-H441; first compound 0.1581 µM
  relative viability: 0.351
NCI-H441; first compound 0.5 µM
  relative viability: 0.336
NCI-H460; first compound 0.005 µM
  relative viability: 0.0372
NCI-H460; first compound 0.01581 µM
  relative viability: 0.0368
NCI-H460; first compound 0.05 µM
  relative viability: 0.0365
NCI-H460; first compound 0.1581 µM
  relative viability: 0.0311
NCI-H460; first compound 0.5 µM
  relative viability: 0.033
NCI-H520; first compound 0.005 µM
  relative viability: 0.249
NCI-H520; first compound 0.01581 µM
  relative viability: 0.234
NCI-H520; first compound 0.05 µM
  relative viability: 0.268
NCI-H520; first compound 0.1581 µM
  relative viability: 0.235
NCI-H520; first compound 0.5 µM
  relative viability: 0.229
NCI-H596; first compound 0.005 µM
  relative viability: 0.34
NCI-H596; first compound 0.01581 µM
  relative viability: 1.14
NCI-H596; first compound 0.1581 µM
  relative viability: 0.867
NCI-H596; first compound 0.5 µM
  relative viability: 0.443
NCI-H650; first compound 0.005 µM
  relative viability: 0.794
NCI-H650; first compound 0.01581 µM
  relative viability: 0.862
NCI-H650; first compound 0.05 µM
  relative viability: 0.682
NCI-H650; first compound 0.1581 µM
  relative viability: 0.786
NCI-H650; first compound 0.5 µM
  relative viability: 0.827
NCI-H661; first compound 0.005 µM
  relative viability: 0.94
NCI-H661; first compound 0.01581 µM
  relative viability: 0.853
NCI-H661; first compound 0.05 µM
  relative viability: 0.971
NCI-H661; first compound 0.1581 µM
  relative viability: 0.775
NCI-H661; first compound 0.5 µM
  relative viability: 0.884
NCI-H727; first compound 0.01581 µM
  relative viability: 0.347
NCI-H727; first compound 0.1581 µM
  relative viability: 0.275
NCI-H727; first compound 0.5 µM
  relative viability: 0.28
PC-14; first compound 0.005 µM
  relative viability: 0.223
PC-14; first compound 0.01581 µM
  relative viability: 0.154
PC-14; first compound 0.05 µM
  relative viability: 0.23
PC-14; first compound 0.1581 µM
  relative viability: 0.313
PC-14; first compound 0.5 µM
  relative viability: 0.146
RERF-LC-KJ; first compound 0.005 µM
  relative viability: 1.32
RERF-LC-KJ; first compound 0.01581 µM
  relative viability: 1.23
RERF-LC-KJ; first compound 0.05 µM
  relative viability: 1.17
RERF-LC-KJ; first compound 0.1581 µM
  relative viability: 1.18
RERF-LC-KJ; first compound 0.5 µM
  relative viability: 1.04
SK-MES-1; first compound 0.005 µM
  relative viability: 0.665
SK-MES-1; first compound 0.01581 µM
  relative viability: 0.985
SK-MES-1; first compound 0.05 µM
  relative viability: 0.959
SK-MES-1; first compound 0.1581 µM
  relative viability: 0.743
SK-MES-1; first compound 0.5 µM
  relative viability: 0.856
SW 900; first compound 0.005 µM
  relative viability: 0.146
SW 900; first compound 0.01581 µM
  relative viability: 0.163
SW 900; first compound 0.05 µM
  relative viability: 0.177
SW 900; first compound 0.1581 µM
  relative viability: 0.199
SW 900; first compound 0.5 µM
  relative viability: 0.132
